Measurements published in patent US20240083861A1, “HSD17B13 INHIBITORS AND USES THEREOF” (FL2022-001, Inc., priority 2020, published 2024).

Target: T1, Recombinant human HSD17B13 enzyme (Homo sapiens, UniProt Q7Z5P4)
T1 sequence (Q7Z5P4 20-300): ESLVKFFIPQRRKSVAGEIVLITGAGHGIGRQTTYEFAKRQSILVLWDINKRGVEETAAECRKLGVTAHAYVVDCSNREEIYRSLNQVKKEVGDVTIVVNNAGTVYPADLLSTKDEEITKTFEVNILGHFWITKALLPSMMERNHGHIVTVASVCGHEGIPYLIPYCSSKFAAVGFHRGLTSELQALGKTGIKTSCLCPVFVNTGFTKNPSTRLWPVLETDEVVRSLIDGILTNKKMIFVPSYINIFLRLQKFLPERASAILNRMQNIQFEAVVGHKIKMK
Assay: HSD17b13 NAD(P)H-Glo biochemical assay
Conditions: 50 uM estradiol, 1 mM NAD+, NAD(P)H-Glo luminescence; read-out: HSD17β13 IC50
How it was run: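 Recombinant human HSD17B13 in 20 mM Tris pH7.4 with 0.002% Tween-20 and 0.02% BSA was preincubated with inhibitor for 20 minutes at RT. The reaction ran 3 hours at 37° C with 50 uM estradiol and 1 mM NAD+ (final). NADH formed was detected by NAD(P)H-Glo luminescence after 1 hour at RT.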

Row | SMILES | IC50 [nM]
1 | CC(=O)N(C)C1CCN(c2ncc3c(-c4cc(C(F)(F)F)c(F)c(O)c4F)nn(C)c3n2)CC1 [Compound 18.28, N-(1-(3-(2,4-Difluoro-3-hydroxy-5-(trifluoromethyl)phenyl)-1-methyl-1H-pyrazolo[3,4-d]pyrimidin-6-yl)piperidin-4-y1)-N-methylacetamide] | < 100
2 | CNC1CCN(c2ncc3c(-c4cc(C(F)(F)F)c(F)c(O)c4F)nn(C)c3n2)CC1 [Compound 18.29, 2,6-Difluoro-3-(1-methyl-6-(4-(methylamino)piperidin-1-yl)-1H-pyrazolo[3,4-d]pyrimidin-3-y1)-5-(trifluoromethyl)phenol] | 100 to 1000
3 | Cn1nc(-c2cc(C(F)(F)F)c(F)c(O)c2F)c2cnc(N3CCC(C(=O)O)CC3)nc21 [Compound 18.30, 1-(3-(2,4-Difluoro-3-hydroxy-5-(trifluoromethyl)phenyl)-1-methyl-1H-pyrazolo[3,4-d]pyrimidin-6-y1)piperidine-4-carboxylic Acid] | 100 to 1000
4 | CN(C)C1CCN(c2ncc3c(-c4cc(C(F)(F)F)c(F)c(O)c4F)nn(C)c3n2)CC1 [Compound 18.31, 3-(6-(4-(Dimethylamino)piperidin-1-y1)-1-methyl-1H-pyrazolo[3,4-d]pyrimidin-3-y1)-2,6-difluoro-5-(trifluoromethyl)phenol] | 100 to 1000
5 | Cn1nc(-c2cc(C(F)(F)F)c(F)c(O)c2F)c2cnc(N3CCOC(c4ccccc4)C3)nc21 (centres unmarked) [Compound 18.32, 2,6-Difluoro-3-(1-methyl-6-(2-phenylmorpholino)-1H-pyrazolo[3,4-d]pyrimidin-3-y1)-5-(trifluoromethyl)phenol] | < 100
6 | CN(C)CC1CN(c2ncc3c(-c4cc(C(F)(F)F)c(F)c(O)c4F)nn(C)c3n2)CCO1 (centres unmarked) [Compound 18.33, 3-(6-(2-((Dimethylamino)methyl)morpholino)-1-methyl-1H-pyrazolo[3,4-d]pyrimidin-3-y1)-2,6-difluoro-5-(trifluoromethyl)phenol] | 100 to 1000
7 | CN(C)CC1CCN(c2ncc3c(-c4cc(C(F)(F)F)c(F)c(O)c4F)nn(C)c3n2)CC1 [Compound 18.34, 3-(6-(4-((Dimethylamino)methyl)piperidin-1-y1)-1-methyl-1H-pyrazolo[3,4-d]pyrimidin-3-y1)-2,6-difluoro-5-(trifluoromethyl)phenol] | 100 to 1000
8 | Cn1nc(-c2cc(C(F)(F)F)c(F)c(O)c2F)c2cnc(N3CCCCC3)nc21 [Compound 18.35, 2,6-Difluoro-3-(1-methyl-6-(piperidin-1-yl)-1H-pyrazolo[3,4-d]pyrimidin-3-y1)-5-(trifluoromethyl)phenol] | < 100
9 | Cn1nc(-c2cc(C(F)(F)F)c(F)c(O)c2F)c2cnc(N3CCC4(CCOCC4)CC3)nc21 [Compound 18.36, 2,6-Difluoro-3-(1-methyl-6-(3-oxa-9-azaspiro[5.5]undecan-9-yl)-1H-pyrazolo[3,4-d]pyrimidin-3-y1)-5-(trifluoromethyl)phenol] | < 100
10 | Cn1nc(-c2cc(C(F)(F)F)c(F)c(O)c2F)c2cnc(N3CCC4(CCOC4)CC3)nc21 [Compound 18.37, 2,6-Difluoro-3-(1-methyl-6-(2-oxa-8-azaspiro[4.5]decan-8-yl)-1H-pyrazolo[3,4-d]pyrimidin-3-y1)-5-(trifluoromethyl)phenol] | < 100
11 | Cn1nc(-c2cc(C(F)(F)F)c(F)c(O)c2F)c2cnc(N3CCOCC3C(=O)O)nc21 (centres unmarked) [Compound 18.38, 4-(3-(2,4-Difluoro-3-hydroxy-5-(trifluoromethyl)phenyl)-1-methyl-1H-pyrazolo[3,4-d]pyrimidin-6-yl)morpholine-3-carboxylic Acid] | 1000 to 30000
12 | CN(C)CCC1CN(c2ncc3c(-c4cc(C(F)(F)F)c(F)c(O)c4F)nn(C)c3n2)CCO1 (centres unmarked) [Compound 18.39, 3-(6-(2-(2-(Dimethylamino)ethyl)morpholino)-1-methyl-1H-pyrazolo[3,4-d]pyrimidin-3-y1)-2,6-difluoro-5-(trifluoromethyl)phenol] | 100 to 1000
13 | Cn1nc(-c2cc(C(F)(F)F)c(F)c(O)c2F)c2cnc(N3CCOCC3CC(=O)O)nc21 (centres unmarked) [Compound 18.40, 2-(4-(3-(2,4-Difluoro-3-hydroxy-5-(trifluoromethyl)phenyl)-1-methyl-1H-pyrazolo[3,4-d]pyrimidin-6-yl)morpholin-3-yl)acetic Acid] | 100 to 1000
14 | CN1CCC2(CC1)CN(c1ncc3c(-c4cc(C(F)(F)F)c(F)c(O)c4F)nn(C)c3n1)CCO2 [Compound 18.41, 2,6-Difluoro-3-(1-methyl-6-(9-methyl-1-oxa-4,9-diazaspiro[5.5]undecan-4-y1)-1H-pyrazolo[3,4-d]pyrimidin-3-y1)-5-(trifluoromethyl)phenol] | 100 to 1000
15 | Cn1nc(-c2cc(C(F)(F)F)c(F)c(O)c2F)c2cnc(N3CCOCC3C3CCOCC3)nc21 (centres unmarked) [Compound 18.42, 2,6-Difluoro-3-(1-methyl-6-(3-(tetrahydro-2H-pyran-4-yl)morpholino)-1H-pyrazolo[3,4-d]pyrimidin-3-y1)-5-(trifluoromethyl)phenol] | < 100
16 | Cn1nc(-c2cc(C(F)(F)F)c(F)c(O)c2F)c2cnc(N3CCOC(C(=O)O)C3)nc21 (centres unmarked) [Compound 18.43, 4-(3-(2,4-Difluoro-3-hydroxy-5-(trifluoromethyl)phenyl)-1-methyl-1H-pyrazolo[3,4-d]pyrimidin-6-yl)morpholine-2-carboxylic Acid] | 1000 to 30000
17 | Cn1nc(-c2cc(C(F)(F)F)c(F)c(O)c2F)c2cnc(N3CCC(c4ccccc4)CC3)nc21 [Compound 18.44, 2,6-Difluoro-3-(1-methyl-6-(4-phenylpiperidin-1-y1)-1H-pyrazolo[3,4-d]pyrimidin-3-y1)-5-(trifluoromethyl)phenol] | < 100
18 | CN(C)C1CCCN(c2ncc3c(-c4cc(C(F)(F)F)c(F)c(O)c4F)nn(C)c3n2)C1 (centres unmarked) [Compound 18.45, 3-(6-(3-(Dimethylamino)piperidin-1-y1)-1-methyl-1H-pyrazolo[3,4-d]pyrimidin-3-y1)-2,6-difluoro-5-(trifluoromethyl)phenol] | 100 to 1000
19 | Cn1nc(-c2cc(C(F)(F)F)c(F)c(O)c2F)c2cnc(N3CCOCC3c3ccccc3)nc21 (centres unmarked) [Compound 18.46, 2,6-Difluoro-3-(1-methyl-6-(3-phenylmorpholino)-1H-pyrazolo[3,4-d]pyrimidin-3-y1)-5-(trifluoromethyl)phenol] | < 100
20 | CN1CCC2(CC1)CCN(c1ncc3c(-c4cc(C(F)(F)F)c(F)c(O)c4F)nn(C)c3n1)CC2 [Compound 18.47, 2,6-Difluoro-3-(1-methyl-6-(9-methyl-3,9-diazaspiro[5.5]undecan-3-y1)-1H-pyrazolo[3,4-d]pyrimidin-3-y1)-5-(trifluoromethyl)phenol] | < 100
21 | Cn1nc(-c2cc(C(F)(F)F)c(F)c(O)c2F)c2cnc(N3CCOC(c4ccccn4)C3)nc21 (centres unmarked) [Compound 18.48, 2,6-Difluoro-3-(1-methyl-6-(2-(pyridin-2-yl)morpholino)-1H-pyrazolo[3,4-d]pyrimidin-3-y1)-5-(trifluoromethyl)phenol] | < 100
22 | Cn1nc(-c2cc(C(F)(F)F)c(F)c(O)c2F)c2cnc(N3CCOC(C4CCOCC4)C3)nc21 (centres unmarked) [Compound 18.49, 2,6-Difluoro-3-(1-methyl-6-(2-(tetrahydro-2H-pyran-4-yl)morpholino)-1H-pyrazolo[3,4-d]pyrimidin-3-y1)-5-(trifluoromethyl)phenol] | < 100
23 | Cn1nc(-c2cc(C(F)(F)F)c(F)c(O)c2F)c2cnc(N3CCOC(c4nnn[nH]4)C3)nc21 (centres unmarked) [Compound 18.50, 3-(6-(2-(1H-Tetrazol-5-yl)morpholino)-1-methyl-1H-pyrazolo[3,4-d]pyrimidin-3-y1)-2,6-difluoro-5-(trifluoromethyl)phenol] | 1000 to 30000
24 | Cn1nccc1C1CN(c2ncc3c(-c4cc(C(F)(F)F)c(F)c(O)c4F)nn(C)c3n2)CCO1 (centres unmarked) [Compound 18.51, 2,6-Difluoro-3-(1-methyl-6-(2-(1-methyl-1H-pyrazol-5-yl)morpholino)-1H-pyrazolo[3,4-d]pyrimidin-3-y1)-5-(trifluoromethyl)phenol] | < 100
25 | Cc1nnc(C2CN(c3ncc4c(-c5cc(C(F)(F)F)c(F)c(O)c5F)nn(C)c4n3)CCO2)o1 (centres unmarked) [Compound 18.52, 2,6-Difluoro-3-(1-methyl-6-(2-(5-methyl-1,3,4-oxadiazol-2-y1)morpholino)-1H-pyrazolo[3,4-d]pyrimidin-3-y1)-5-(trifluoromethyl)phenol] | 100 to 1000
26 | CN1CCN(c2ncc3c(-c4cc(C(F)(F)F)c(F)c(O)c4F)nn(C)c3n2)C(c2ccccc2)C1 (centres unmarked) [Compound 18.53, 2,6-Difluoro-3-(1-methyl-6-(4-methyl-2-phenylpiperazin-1-yl)-1H-pyrazolo[3,4-d]pyrimidin-3-yl)-5-(trifluoromethyl)phenol] | < 100
27 | Cn1nc(-c2cc(C(F)(F)F)c(F)c(O)c2F)c2cnc(N3CCS(=O)(=O)C(C)(C)C3)nc21 [Compound 18.54, 4-(3-(2,4-Difluoro-3-hydroxy-5-(trifluoromethyl)phenyl)-1-methyl-1H-pyrazolo[3,4-d]pyrimidin-6-yl)-2,2-dimethylthiomorpholine 1,1-dioxide] | < 100
28 | Cn1nc(-c2cc(C(F)(F)F)c(F)c(O)c2F)c2cnc(N3CCOC(c4cccnc4)C3)nc21 (centres unmarked) [Compound 18.55, 2,6-Difluoro-3-(1-methyl-6-(2-(pyridin-3-y1)morpholino)-1H-pyrazolo[3,4-d]pyrimidin-3-y1)-5-(trifluoromethyl)phenol] | < 100
29 | Cn1nc(-c2cc(C(F)(F)F)c(F)c(O)c2F)c2cnc(N3CCOC(c4ccncc4)C3)nc21 (centres unmarked) [Compound 18.56, 2,6-Difluoro-3-(1-methyl-6-(2-(pyridin-4-y1)morpholino)-1H-pyrazolo[3,4-d]pyrimidin-3-y1)-5-(trifluoromethyl)phenol] | < 100
